We go through 30 substances from patent US7135548B2, “Modified α-MSH peptides and derivatives thereof” (Zengen, Inc., priority 2002, dated 2006).

In experiment [1] the test system is Candida albicans. Nature of the experiment: Inhibition of Candida albicans colony formation (viability estimated from colonies formed). Format: cell-based. The settings on record: for % Inhib. (inhibitory effect on Candida Albicans): clinical isolates, 1×10^6/ml in HBSS, two hours at 37° C. with peptide, colonies counted after 48 hours, peptide concentration for the table not given (range tested 10^−15 to 10^−4 M); for antimicrobial activity toward Candida albicans (result in words): Table 1 / FIG. 1. How it is done:
Clinical isolates of C. albicans were also obtained from the collection of the Department of Microbiology, Ospedale Maggiore di Milano. Cultures of C. albicans were maintained on Sabouraud's agar slants and periodically transferred to Sabouraud's agar plates and incubated for 48 hours at 28° C. To prepare stationary growth-phase yeast, a colony may be taken from the agar plate, transferred into 30 ml of Sabouraud-dextrose broth, and incubated for 72 hours at 32° C. Cells were centrifuged at 1000×g for ten minutes, and the pellet may be washed twice with distilled water. Cells were counted and suspended in Hank's balanced salt solution (“HBSS”) to the desired concentration. Viability, determined by exclusion of 0.01% methylene blue, remained greater than 98%.
At 1×10^6/ml in HBSS, these fungi were incubated in the presence or absence of modified α-MSH peptides at concentrations ranging from 10^−15 to 10^−4 M for two hours at 37° C. Cells were then washed in cold distilled water and diluted with HBSS to a concentration of 100 organisms/ml. One-milliliter aliquots were then dispensed on blood agar plates and incubated for 48 hours at 37° C. The organism's viability may be estimated from the number of colonies formed.

For experiment [2], the system named is Candida albicans. To be noted: comparison value, see U.S. patent application Ser. No. 09/535,066; cited from earlier work.

Entries after “also recorded” stand apart in the source; their conditions may differ. Square brackets hold non-standard residues; d marks the D form. Ends that are not written are not given here. dNal = D-naphthylalanine (D-Nal)

For the substance HFRWGKAV [SEQ. ID. NO. 19], the “% Inhib. (inhibitory effect on Candida Albicans)” value in the experiment on Candida albicans [1] is reported as 12.8%. With HFR[dW]GKPV [SEQ. ID. NO. 23], in the experiment on Candida albicans [1], the “% Inhib. (inhibitory effect on Candida Albicans)” value was 81.9%. The same measure, in the same setting: to “His-Phe-Arg-Trp-Gly-Lys-DAla-Val (HFRWGK[dA]V-OH; N-terminus assumed; SMILES CC(C)[C@H](NC(=O)[C@@H](C)NC(=O)[C@H](CCCCN)NC(=O)CNC(=O)[C@H](Cc1c[nH]c2ccccc12)NC(=O)[C@H](CCCNC(=N)N)NC(=O)[C@H](Cc1ccccc1)NC(=O)[C@@H](N)Cc1c[nH]cn1)C(=O)O) [SEQ. ID. NO. 25]” belongs 43.7%. The same measure, in the same setting: to HFRWGKFV [SEQ. ID. NO. 32] belongs 90.0%.

On to “His-DNal-Arg-Trp-Gly-Lys-Phe-Val (H[dNal]RWGKFV-OH) [SEQ. ID. NO. 36]”, for which, in the experiment on Candida albicans [1], the “antimicrobial activity toward Candida albicans (result in words)” value is listed as “potent antimicrobial activity; also recorded: remarkable anticandidacidal activity” and the “% Inhib. (inhibitory effect on Candida Albicans)” value was 99.7%. Consider “His-DPhe-Arg-Trp-Gly-Lys-Asp-Val (H[dF]RWGKDV-OH; N-terminus assumed; SMILES CC(C)[C@H](NC(=O)[C@H](CC(=O)O)NC(=O)[C@H](CCCCN)NC(=O)CNC(=O)[C@H](Cc1c[nH]c2ccccc12)NC(=O)[C@H](CCCNC(=N)N)NC(=O)[C@@H](Cc1ccccc1)NC(=O)[C@@H](N)Cc1c[nH]cn1)C(=O)O) [SEQ. ID. NO. 40]”, for which the “% Inhib. (inhibitory effect on Candida Albicans)” value in the experiment with Candida albicans [1] is recorded as 3.7%.

Take “His-DNal-Arg-Trp-Gly-Lys-DAla-Val (H[dNal]RWGK[dA]V-OH) [SEQ. ID. NO. 27]”: the “% Inhib. (inhibitory effect on Candida Albicans)” value in the experiment on Candida albicans [1] is 69.2%. As to “SYSMEHFRWGKPV [α-MSH, naturally occurring 13-amino acid peptide, α-melanocyte-stimulating hormone]”, the “inhibition of C. albicans colonies by naturally occurring α-MSH” value in the experiment with Candida albicans [2] is “less than 80%”. Take “His-DNal-Arg-Trp-Gly-Lys-Gly-Val (H[dNal]RWGKGV-OH) [SEQ. ID. NO. 29]”: in the experiment with Candida albicans [1], the “% Inhib. (inhibitory effect on Candida Albicans)” value is given as 36.2%. For the substance “His-Phe-Arg-Trp-Gly-Lys-DAsp-Val (HFRWGK[dD]V-OH; N-terminus assumed; SMILES CC(C)[C@H](NC(=O)[C@@H](CC(=O)O)NC(=O)[C@H](CCCCN)NC(=O)CNC(=O)[C@H](Cc1c[nH]c2ccccc12)NC(=O)[C@H](CCCNC(=N)N)NC(=O)[C@H](Cc1ccccc1)NC(=O)[C@@H](N)Cc1c[nH]cn1)C(=O)O) [SEQ. ID. NO. 39]”, the “% Inhib. (inhibitory effect on Candida Albicans)” value with Candida albicans [1] is listed as 15.7%. Same read-out and setting: to HFRWGKPL [SEQ. ID. NO. 24] belongs 86.6%. With “His-DNal-Arg-Trp-Gly-Lys-Asp-Val (H[dNal]RWGKDV-OH) [SEQ. ID. NO. 41]”, in the experiment with Candida albicans [1], the “antimicrobial activity toward Candida albicans (result in words)” value is given as “decreased activity” and the “% Inhib. (inhibitory effect on Candida Albicans)” value is 16.8%.

On to HFRWGKKV [SEQ. ID. NO. 44], for which the “% Inhib. (inhibitory effect on Candida Albicans)” value in the experiment on Candida albicans [1] was 41.0%.

For the substance “His-DPhe-Arg-Trp-Gly-Lys-Phe-Val (H[dF]RWGKFV-OH; N-terminus assumed; SMILES CC(C)[C@H](NC(=O)[C@H](Cc1ccccc1)NC(=O)[C@H](CCCCN)NC(=O)CNC(=O)[C@H](Cc1c[nH]c2ccccc12)NC(=O)[C@H](CCCNC(=N)N)NC(=O)[C@@H](Cc1ccccc1)NC(=O)[C@@H](N)Cc1c[nH]cn1)C(=O)O) [SEQ. ID. NO. 34]”, the “% Inhib. (inhibitory effect on Candida Albicans)” value in the experiment on Candida albicans [1] is on record as 89.6%. The same measure, in the same setting: with HFRWGKDV [SEQ. ID. NO. 38] the figure was 5.9%; with HFRWGKPA [SEQ. ID. NO. 20], 68.4%. HFRWGKGV [SEQ. ID. NO. 28]: the “% Inhib. (inhibitory effect on Candida Albicans)” value with Candida albicans [1] is recorded as 41.8%. With “His-DNal-Arg-Trp-Gly-Lys-Pro-Val (H[dNal]RWGKPV-OH) [SEQ. ID. NO. 22]”, in the experiment on Candida albicans [1], the “antimicrobial activity toward Candida albicans (result in words)” value is on record as “increased activity” and the “% Inhib. (inhibitory effect on Candida Albicans)” value is recorded as 95.3%. Regarding HFRWGKEV [SEQ. ID. NO. 42], the “% Inhib. (inhibitory effect on Candida Albicans)” value in the experiment with Candida albicans [1] is on record as 11.2%. Still for that read-out and setting: to “His-Phe-Arg-Trp-Gly-Lys-Pro-DVal (HFRWGKP[dV]-OH; N-terminus assumed; SMILES CC(C)[C@@H](NC(=O)[C@@H]1CCCN1C(=O)[C@H](CCCCN)NC(=O)CNC(=O)[C@H](Cc1c[nH]c2ccccc12)NC(=O)[C@H](CCCNC(=N)N)NC(=O)[C@H](Cc1ccccc1)NC(=O)[C@@H](N)Cc1c[nH]cn1)C(=O)O) [SEQ. ID. NO. 17]” belongs 82.5%; to “His-DPhe-Arg-Trp-Gly-Lys-Pro-Val (H[dF]RWGKPV-OH; N-terminus assumed; SMILES CC(C)[C@H](NC(=O)[C@@H]1CCCN1C(=O)[C@H](CCCCN)NC(=O)CNC(=O)[C@H](Cc1c[nH]c2ccccc12)NC(=O)[C@H](CCCNC(=N)N)NC(=O)[C@@H](Cc1ccccc1)NC(=O)[C@@H](N)Cc1c[nH]cn1)C(=O)O) [SEQ. ID. NO. 21]”, 79.4%. On to HFRWGKSV [SEQ. ID. NO. 30], for which, in the experiment with Candida albicans [1], the “antimicrobial activity toward Candida albicans (result in words)” value was “No substantial modification in activity” and the “% Inhib. (inhibitory effect on Candida Albicans)” value is reported as 32.3%. Consider H[dF]RWGK[dF]V [SEQ. ID. NO. 35], for which, in the experiment on Candida albicans [1], the “% Inhib. (inhibitory effect on Candida Albicans)” value is reported as 82.0%. Turning to “His-DNal-Arg-Trp-Gly-Lys-Ser-Val (H[dNal]RWGKSV-OH) [SEQ. ID. NO. 31]”, in the experiment with Candida albicans [1], the “antimicrobial activity toward Candida albicans (result in words)” value was “No substantial modification in activity” and the “% Inhib. (inhibitory effect on Candida Albicans)” value was 73.9%. HFRWGAPV [SEQ. ID. NO. 18]: the “% Inhib. (inhibitory effect on Candida Albicans)” value in the experiment on Candida albicans [1] is on record as 26.2%. For the substance “His-Phe-Arg-Trp-Gly-Lys-DPhe-Val (HFRWGK[dF]V-OH; N-terminus assumed; SMILES CC(C)[C@H](NC(=O)[C@@H](Cc1ccccc1)NC(=O)[C@H](CCCCN)NC(=O)CNC(=O)[C@H](Cc1c[nH]c2ccccc12)NC(=O)[C@H](CCCNC(=N)N)NC(=O)[C@H](Cc1ccccc1)NC(=O)[C@@H](N)Cc1c[nH]cn1)C(=O)O) [SEQ. ID. NO. 33]”, the “% Inhib. (inhibitory effect on Candida Albicans)” value in the experiment with Candida albicans [1] is 97.5%. As for “His-DNal-Arg-Trp-Gly-Lys-Glu-Val (H[dNal]RWGKEV-OH) [SEQ. ID. NO. 43]”, in the experiment with Candida albicans [1], the “antimicrobial activity toward Candida albicans (result in words)” value is given as “decreased activity” and the “% Inhib. (inhibitory effect on Candida Albicans)” value is 32.3%. Taken in the same sequence, the figures for “His-DNal-Arg-Trp-Gly-Lys-DPhe-Val (H[dNal]RWGK[dF]V-OH) [SEQ. ID. NO. 37]” were “potent antimicrobial activity” and 57.6%. As for “His-DNal-Arg-Trp-Gly-Lys-Lys-Val (H[dNal]RWGKKV-OH) [SEQ. ID. NO. 45]”, the “% Inhib. (inhibitory effect on Candida Albicans)” value in the experiment on Candida albicans [1] is given as 85.4%. On to “His-DNal-Arg-Trp-Gly-Lys-Ala-Val (H[dNal]RWGKAV-OH) [SEQ. ID. NO. 26]”, for which the “% Inhib. (inhibitory effect on Candida Albicans)” value with Candida albicans [1] is given as 28.0%.
